Patent US20160016986A1, “STABILIZED NUCLEOTIDES FOR MEDICAL TREATMENT” (priority 2014, published 2016)
Like-named read-outs stand apart in the source and are kept apart here.

Columns and labels:
[1] = Half-life of the active triphosphate in human hepatocytes; format: in vitro ADME; settings: plated in 12-well format
Procedure: Human hepatocyte cells used for half-life determinations were human liver hepatocyte 12-well format cells and were seeded at 0.67 million cells per well. Canine hepatocyte cells used for half-life determinations were beagle dog liver hepatocyte 12-well format cells and were seeded at 0.67 million cells per well. Monkey hepatocyte cells used for half-life determinations were Cynomolgus monkey liver hepatocyte 12-well format cells, and were seeded at 0.9 million cells per well. Rat hepatocyte cells for half-life determinations were Sprague-Dawley (SD) rat liver hepatocyte 12-well format cells, and were seeded at 0.67 million cells per well. All cells were obtained from Life Technologies.

HCV genotype 1, 2 or 3 = settings: once-daily 300 mg for seven days; cited from earlier work
HCV genotype 1 = settings: cited from earlier work
[2] = patients receiving high dosages of VX-135; cited from earlier work
HCV = settings: several large clinical trials; cited from earlier work
human hepatocytes = assay: Determination of nucleoside concentrations (dephosphorylated 5′-OH nucleoside) in human hepatocyte media and cell extract; format: in vitro ADME; settings: 20 μM Formula VII vs Formula II, 24 hours
Procedure: At 24 hours, media was removed and frozen. Cells were washed twice with cold PBS.
Supernatants were removed and analyzed by LC-MS/MS. […] Samples were centrifuged at 3000 rpm for 15 minutes. Supernatants were removed and analyzed by LC-MS/MS.
Hepatocyte media incubates were removed from the freezer, defrosted and vortexed. […] Supernatants were removed and analyzed by LC-MS/MS. […] Supernatants were removed and analyzed by LC-MS/MS.

human liver hepatocytes = assay: Triphosphate levels in human hepatocytes after incubation with prodrug; settings: incubation with 5 μM prodrug over 48 hours
Procedure: Fresh liver hepatocytes were received plated in a 12-well or 6-well format (Life Technologies, Catalogue #HMFN12 and #HMNF06). Upon receipt, shipping media was removed immediately and replaced with 1 mL or 2 mL pre-warmed culture medium (Supplemented modified Chee's Media; Xenotech LLC, Catalogue# K2300) for 12- and 6-well formats, respectively. Cells were acclimated overnight at 37° C. with 5% CO2 atmosphere. […] Stability of the compounds in the absence of cells was also assayed. […] Cells were washed twice with cold PBS. 70% cold Methanol (0.75 mL or 1.5 mL, for 12- and 6-well formats, respectively) containing Formula X as an internal standard was added to each well and cells were gently removed from the plate by scraping. The recovered cells suspended in the methanol solution were aspirated into a vial and frozen at −80° C.
Cell solutions were extracted overnight at −80° C. in 70% methanol, removed from the freezer, defrosted and vortexed. Tubes were centrifuged at 3000 rpm for 15 minutes at 4° C. Supernatants were removed and analyzed by LC-MS/MS. […] Supernatants were removed and analyzed by LC-MS/MS. […] The analytes were quantified using linear regression of calibration standard values with instrument response. […]
The general methods of Example 33 were used to determine compound concentrations. […] The results were plotted and the linear regression was calculated using Microsoft Excel.

HCV replicon replication = assay: Inhibition of HCV replication (HCV replicon in Huh-luc/neo cells; extrapolated to primary human hepatocytes); format: cell-based
[3] = human, in vivo; cited from earlier work
[4] = beagle (dog), Sprague-Dawley (rat), cynomolgus monkey, range over human, dog, monkey and rat hepatocytes, read-out: half-life of active triphosphate in hepatocytes
[5] = 6 well plate (2 ml), 1.7 million cells per well
[6] = 12 well plate (1 ml), 0.67 million cells per well

[2H]c1cn(C2OC(C([2H])([2H])OP(=O)(O)OP(=O)(O)OP(=O)(O)O)[C@@H](O)[C@@]2(C)O)c(=O)[nH]c1=O (some centres unmarked) [Formula IV]
half-life [1, 4]: 10 to 30 h
half-life ([1]; human, human hepatocytes, read-out: half-life of triphosphate): > 24 h

CC(C)OC(=O)[C@@H](C)N[P@@](=O)(OC[C@H]1O[C@@H](n2ccc(=O)[nH]c2=O)[C@](C)(Cl)[C@@H]1O)Oc1ccccc1 [IDX21437]
mean maximum reduction in viral load (HCV genotype 1, 2 or 3): 4.2-4.3 log 10 IU/mL

CC(C)OC(=O)[C@H](C)NP(=S)(OC[C@H]1O[C@@H](n2ccc(=O)[nH]c2=O)[C@](C)(O)[C@@H]1O)Oc1ccccc1 (single isomer, unassigned) [VX-135]
completion of treatment rate (SVR12) (HCV genotype 1; 200 mg VX-135 in combination with daclatasvir, 12 weeks of treatment): 91%
sustained viral response rate four weeks after completion of treatment (SVR4) (HCV genotype 1; 200 mg VX-135 in combination with daclatasvir, treatment-naïve genotype 1, intent-to-treat): 83%
adverse event (HCV genotype 1; VX-135 in combination with daclatasvir, one patient): serious adverse event of vomiting/nausea
clinical toxicity finding [2]: liver toxicity

CC(C)OC(=O)[C@H](C)N[P@](=O)(OC[C@H]1O[C@@H](n2ccc(=O)[nH]c2=O)C(C)(F)C1O)Oc1ccccc1 (some centres unmarked) [Sofosbuvir]
sustained viral response (SVR) of twelve weeks, share of trial participants (HCV): 50-90%

C[C@@]1(O)[C@H](O)[C@@H](CO)O[C@H]1n1ccc(=O)[nH]c1=O [Formula IX, 2′-C-methyluridine]
higher concentration of undeuterated dephosphorylated 2′-methyl uridine compared to 5′-deuterated form (Formula VI), cell extract (intracellular) (human hepatocytes; [5]): 2.8 fold
higher concentration of undeuterated dephosphorylated 2′-methyl uridine compared to 5′-deuterated form (Formula VI), first value, printed as cell extract (human hepatocytes; [5]): 1.5 fold
higher concentration of undeuterated dephosphorylated 2′-methyl uridine (Formula IX) compared to 5′-deuterated form (Formula VI), cell extract (intracellular) (human hepatocytes; [6]): 2.9 fold
higher concentration of undeuterated dephosphorylated 2′-methyl uridine (Formula IX) compared to 5′-deuterated form (Formula VI), media (extracellular) (human hepatocytes; [6]): 1.9 fold

C[C@@]1(F)[C@H](O)[C@@H](COP(=O)(O)OP(=O)(O)OP(=O)(O)O)O[C@H]1n1ccc(=O)[nH]c1=O [GS-7977-TP]
time of peak triphosphate levels in human hepatocytes (human liver hepatocytes): 24 h
half-life [1, 4]: 8 to 23 h

[2H]c1cn(C2OC(C([2H])([2H])O)[C@@H](O)[C@@]2(C)O)c(=O)[nH]c1=O (some centres unmarked) [Formula VI, 5′-deuterated 2′-C-methyluridine]
activity against hepatitis C viral replication (HCV replicon replication; statement in description, poor substrate for nucleoside monophosphate kinase): little activity

[2H]c1cn([C@@H]2O[C@H](C([2H])([2H])O[P@@](=O)(N[C@@H](C)C(=O)OC(C)C)Oc3ccccc3)[C@@H](O)[C@@]2(C)O)c(=O)[nH]c1=O [Formula II, (S)-isopropyl 2-(((S)-(((2R,3R,4R,5R)-5-(5-deutero-2,4-dioxo-3,4-dihydropyrimidin-1(2H)-yl)-3,4-dihydroxy-4-methyltetrahydrofuran-2-yl)dideuteromethoxy)(phenoxy)phosphoryl)amino)propanoate]
EC50 (HCV replicon replication; Hepatitis C virus, Hepatocyte, read-out: predicted EC50 in primary human hepatocytes): 6.25 to 10 nM

COc1nc(N)nc2c1ncn2[C@@H]1O[C@H](COP(=O)(N[C@@H](C)C(=O)OCC(C)(C)C)Oc2cccc3ccccc23)[C@@H](O)[C@@]1(C)O (some centres unmarked) [BMS-986094]
clinical safety outcome [3]: death of a patient due to heart failure
